Laboratory results from BindingDB's records for doi:10.1021/jm00001a001 (Biochem Therapeutic, 1995).

Molecular target: Reverse transcriptase/RNaseH (Human immunodeficiency virus 1, UniProt Q72547)
Test: Ability to inhibit the HIV-1 reverse transcriptase in cord blood mononuclear cells.

IC50: 0.03 µM
Structure (SMILES): Cc1cn([C@H]2C[C@H](N=[N+]=[N-])[C@@H](CO)O2)c(=O)[nH]c1=O [1-((2R,4S,5S)-4-Azido-5-hydroxymethyl-tetrahydro-furan-2-yl)-5-methyl-1H-pyrimidine-2,4-dione]
